Laboratory results: patent publication US20190367516A1 (Bayer Pharma Aktiengesellschaft, priority 2015, published 2019)
Like-named read-outs stand apart in the source and are kept apart here.

Biological target: T1, human M2 receptor (Homo sapiens, UniProt P08172)
T1 sequence (P08172 1-466): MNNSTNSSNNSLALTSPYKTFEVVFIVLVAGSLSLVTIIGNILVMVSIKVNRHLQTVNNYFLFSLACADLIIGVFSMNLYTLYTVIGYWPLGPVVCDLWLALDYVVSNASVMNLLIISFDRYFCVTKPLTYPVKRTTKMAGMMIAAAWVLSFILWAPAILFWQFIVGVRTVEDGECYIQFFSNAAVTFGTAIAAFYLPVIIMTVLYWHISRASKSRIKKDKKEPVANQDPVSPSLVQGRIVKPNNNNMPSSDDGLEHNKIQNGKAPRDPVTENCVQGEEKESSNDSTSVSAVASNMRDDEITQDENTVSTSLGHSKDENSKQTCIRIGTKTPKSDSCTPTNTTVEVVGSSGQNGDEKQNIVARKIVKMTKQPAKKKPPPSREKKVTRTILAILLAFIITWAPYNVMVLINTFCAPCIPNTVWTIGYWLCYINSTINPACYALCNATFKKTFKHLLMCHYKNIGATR
Settings: for EC50: Receptor activity EC50, allosteric potency at EC20 acetylcholine, in some cases mean of two or more determinations

[1] = read-out: Efficiency, boosting of the acetylcholine effect at EC20 acetylcholine concentration, M2-GIRK1/4 reporter cells

Row | SMILES | EC50 (M2-GIRK1/4 reporter cells) [nM] | Emax [1] [%] | Emax (read-out: Efficiency) [%]
1 | O=C(NC1(C(F)(F)F)CCC1)c1cn(-c2c(F)cc(F)cc2F)c2nc(N3C[C@@H](O)[C@H](O)C3)ccc2c1=O [Example 625, 7-[(3R,4R)-3,4-Dihydroxypyrrolidin-1-yl]-4-oxo-N-[1-(trifluoromethyl)cyclobutyl]-1-(2,4,6-trifluorophenyl)-1,4-dihydro-1,8-naphthyridine-3-carboxamide] | 43 | 100 | 
2 | O=C(N[C@@H](C1CC1)C(F)(F)F)c1cn(-c2c(F)cc(F)cc2F)c2nc(N3C[C@@H](O)[C@@H](O)C3)ccc2c1=O [Example 630, N-[(1S)-1-Cyclopropyl-2,2,2-trifluoroethyl]-7-[(3R,4S)-3,4-dihydroxypyrrolidin-1-yl]-4-oxo-1-(2,4,6-trifluorophenyl)-1,4-dihydro-1,8-naphthyridine-3-carboxamide] | 48 |  | 100
3 | O=C(NC1(CC(F)(F)F)CC1)c1cn(-c2c(F)cc(F)cc2F)c2nc(N3C[C@@H](O)[C@H](O)C3)ccc2c1=O [Example 635, 7-[(3R,4R)-3,4-Dihydroxypyrrolidin-1-yl]-4-oxo-N-[1-(2,2,2-trifluoroethyl)cyclopropyl]-1-(2,4,6-trifluorophenyl)-1,4-dihydro-1,8-naphthyridine-3-carboxamide] | 59 | 100 | 
4 | NC(=O)N1CCN(c2ccc3c(=O)c(C(=O)Nc4c(Cl)cccc4Cl)cn(-c4c(F)cc(F)cc4F)c3n2)CC1 [Example 636] | 60 | 98.1 | 
5 | CC[C@H](NC(=O)c1cn(-c2c(F)cccc2F)c2nc(N3CCNC3=O)ccc2c1=O)C(F)(F)F [Example 637, 1-(2,6-Difluorophenyl)-4-oxo-7-(2-oxoimidazolidin-1-yl)-N-[(2)-1,1,1-trifluorobutan-2-yl]-1,4-dihydro-1,8-naphthyridine-3-carboxamide] | 60 | 93 | 
6 | CC[C@@H](NC(=O)c1cn(-c2c(F)cccc2F)c2nc(N3CCNC3=O)ccc2c1=O)C(F)(F)F [Example 638, 1-(2,6-Difluorophenyl)-4-oxo-7-(2-oxoimidazolidin-1-yl)-N-[(2R)-1,1,1-trifluorobutan-2-yl]-1,4-dihydro-1,8-naphthyridine-3-carboxamide] | 63 | 100 | 
7 | CC[C@@H](NC(=O)c1cn(-c2ccc(F)cc2F)c2nc(N3C(=O)CC(O)C3C)ccc2c1=O)C(F)(F)F (stereo partly drawn) [Example 640, 1-(2,4-Difluorophenyl)-7-[3-hydroxy-2-methyl-5-oxopyrrolidin-1-yl]-4-oxo-N-[(2R)-1,1,1-trifluorobutan-2-yl]-1,4-dihydro-1,8-naphthyridine-3-carboxamide] | 69 | 91.3 | 
8 | COC1(C)CN(c2ccc3c(=O)c(C(=O)NC45CC(C4)C5)cn(-c4c(F)cc(F)cc4F)c3n2)C1 [Example 641, N-(Bicyclo[1.1.1]pent-1-yl)-7-(3-methoxy-3-methylazetidin-1-yl)-4-oxo-1-(2,4,6-trifluorophenyl)-1,4-dihydro-1,8-naphthyridine-3-carboxamide] | 71 | 100 | 
9 | O=C(N[C@@H](C1CC1)C(F)(F)F)c1cn(-c2c(F)cc(F)cc2F)c2nc(N3C[C@H](O)[C@@H](O)C3)ccc2c1=O [Example 642, N-[(1 S)-1-Cyclopropyl-2,2,2-trifluoroethyl]-7-[(3S,4S)-3,4-dihydroxypyrrolidin-1-yl]-4-oxo-1-(2,4,6-trifluorophenyl)-1,4-dihydro-1,8-naphthyridine-3-carboxamide] | 72 |  | 100
10 | CC[C@@H](NC(=O)c1cn(-c2c(Cl)cc(F)cc2Cl)c2nc(N3C[C@@H](O)[C@H](O)C3)ccc2c1=O)C(F)(F)F [Example 643, 1-(2,6-Dichloro-4-fluorophenyl)-7-[(3R,4R)-3,4-dihydroxypyrrolidin-1-yl]-4-oxo-N-[(2R)-1,1,1-trifluorobutan-2-yl]-1,4-dihydro-1,8-naphthyridine-3-carboxamide] | 73 | 92 | 
11 | O=C(N[C@@H](C1CC1)C(F)(F)F)c1cn(-c2c(F)cccc2F)c2nc(N3CCNC3=O)ccc2c1=O [Example 644, N-[(1 S)-1-Cyclopropyl-2,2,2-trifluoroethyl]-1-(2,6-difluorophenyl)-4-oxo-7-(2-oxoimidazolidin-1-yl)-1,4-dihydro-1,8-naphthyridine-3-carboxamide] | 74 | 85 | 
12 | CC[C@@H](NC(=O)c1cn(-c2c(Cl)cccc2Cl)c2nc(N3C[C@@H](O)CC3=O)ccc2c1=O)C(F)(F)F [Example 645, 1-(2,6-Dichlorophenyl)-7-[(4S)-4-hydroxy-2-oxopyrrolidin-1-yl]-4-oxo-N-[(2R)-1,1,1-trifluorobutan-2-yl]-1,4-dihydro-1,8-naphthyridine-3-carboxamide] | 74 |  | 83
13 | O=C(N[C@H](C1CC1)C(F)(F)F)c1cn(-c2c(Cl)cc(F)cc2Cl)c2nc(N3CCNC3=O)ccc2c1=O [Example 647, N-[(1R)-1-Cyclopropyl-2,2,2-trifluoroethyl]-1-(2,6-dichloro-4-fluorophenyl)-4-oxo-7-(2-oxoimidazolidin-1-yl)-1,4-dihydro-1,8-naphthyridine-3-carboxamide] |  | 92 | 
14 | CC[C@@H](NC(=O)c1cn(-c2c(Cl)cc(F)cc2Cl)c2nc(N3CCNC3=O)ccc2c1=O)C(F)(F)F [Example 649, 1-(2,6-Dichloro-4-fluorophenyl)-4-oxo-7-(2-oxoimidazolidin-1-yl)-N-[(2R)-1,1,1-trifluorobutan-2-yl]-1,4-dihydro-1,8-naphthyridine-3-carboxamide] | 83 | 94 | 
15 | NC(=O)N1CCN(c2ccc3c(=O)c(C(=O)N[C@H](C4CC4)C(F)(F)F)cn(-c4c(F)cc(F)cc4F)c3n2)CC1 [Example 650, 7-(4-Carbamoylpiperazin-1-yl)-N-[(1R)-1-cyclopropyl-2,2,2-trifluoroethyl]-4-oxo-1-(2,4,6-trifluorophenyl)-1,4-dihydro-1,8-naphthyridine-3-carboxamide] | 83 | 100 | 

More lines, main results first:

Row | EC50 (M2-GIRK1/4 reporter cells) [nM] | Emax [1] [%] | SMILES | Emax (read-out: Efficiency) [%]
16 | 25 | 93.5 | O=C(N[C@@H](C1CC1)C(F)(F)F)c1cn(-c2c(F)cc(F)cc2F)c2nc(N3CCCNC3=O)ccc2c1=O [Example 604, N-[(1S)-1-Cyclopropyl-2,2,2-trifluoroethyl]-4-oxo-7-(2-oxotetrahydropyrimidin-1(2H)-yl)-1-(2,4,6-trifluorophenyl)-1,4-dihydro-1,8-naphthyridine-3-carboxamide] | 
17 | 25 | 98 | COC1(C)CN(c2ccc3c(=O)c(C(=O)N[C@H](C4CC4)C(F)(F)F)cn(-c4c(F)cc(F)cc4F)c3n2)C1 [Example 605, N-[(1R)-1-Cyclopropyl-2,2,2-trifluoroethyl]-7-(3-methoxy-3-methylazetidin-1-yl)-4-oxo-1-(2,4,6-trifluorophenyl)-1,4-dihydro-1,8-naphthyridine-3-carboxamide] | 
18 | 29 | 100 | CC(C)(CC(F)(F)F)NC(=O)c1cn(-c2c(F)cc(F)cc2F)c2nc(N3C[C@@H](O)[C@@H](O)C3)ccc2c1=O [Example 612, 7-[(3R,4S)-3,4-Dihydroxypyrrolidin-1-yl]-4-oxo-N-(4,4,4-trifluoro-2-methylbutan-2-yl)-1-(2,4,6-trifluorophenyl)-1,4-dihydro-1,8-naphthyridine-3-carboxamide] | 
19 | 33 | 95.5 | O=C(Nc1c(Cl)cccc1Cl)c1cn(-c2c(F)cc(F)cc2F)c2nc(N3CCNC3=O)ccc2c1=O [Example 613, N-(2,6-Dichlorophenyl)-4-oxo-7-(2-oxoimidazolidin-1-yl)-1-(2,4,6-trifluorophenyl)-1,4-dihydro-1,8-naphthyridine-3-carboxamide] | 
20 | 36 | 94.5 | CC(C)(NC(=O)c1cn(-c2c(F)cc(F)cc2F)c2nc(N3CCNC3=O)ccc2c1=O)C(F)F [Example 614, N-(1,1-Difluoro-2-methylpropan-2-yl)-4-oxo-7-(2-oxoimidazolidin-1-yl)-1-(2,4,6-trifluorophenyl)-1,4-dihydro-1,8-naphthyridine-3-carboxamide] | 
21 | 44 | 100 | O=C(N[C@H](C1CC1)C(F)(F)F)c1cn(-c2c(F)cccc2F)c2nc(N3CCNC3=O)ccc2c1=O [Example 629, N-[(1R)-1-Cyclopropyl-2,2,2-trifluoroethyl]-1-(2,6-difluorophenyl)-4-oxo-7-(2-oxoimidazolidin-1-yl)-1,4-dihydro-1,8-naphthyridine-3-carboxamide] | 
22 | 49 | 100 | O=C(NC1(CC(F)(F)F)CC1)c1cn(-c2c(F)cc(F)cc2F)c2nc(N3C[C@@H](O)CC3=O)ccc2c1=O [Example 632, 7-[(4S)-4-Hydroxy-2-oxopyrrolidin-1-yl]-4-oxo-N-[1-(2,2,2-trifluoroethyl)cyclopropyl]-1-(2,4,6-trifluorophenyl)-1,4-dihydro-1,8-naphthyridine-3-carboxamide] | 
23 | 52 | 93.8 | COC(=O)N1CCN(c2ccc3c(=O)c(C(=O)NC45CC(C4)C5)cn(-c4c(F)cc(F)cc4F)c3n2)CC1 [Example 633, Methyl 4-[6-(bicyclo[1.1.1]pent-1-ylcarbamoyl)-5-oxo-8-(2,4,6-trifluorophenyl)-5,8-dihydro-1,8-naphthyridin-2-yl]piperazine-1-carboxylate] | 
